Values after ≈ are worked out from the molar mass of the structure shown.
What was measured:
[1] = test system: L1210; assay: Cytotoxicity against mouse L1210 cells; format: functional, cell-based
[2] = test system: KB; assay: Cytotoxicity against human KB cells; format: functional, cell-based

SMILES | IC50 [1] | IC50 [2]
C=C1[C@@H](O)C[C@H]2C(C)(C)[C@@H](O)CC[C@]2(C)[C@H]1C/C=C1\CCOC1=O [PACOVATININ B] | > 10 µg/mL | > 10 µg/mL
C=C1[C@@H](O)C[C@H]2C(C)(C)C(=O)CC[C@]2(C)[C@H]1C/C=C1/CCOC1=O [PACOVATININ C] | 4.7 µg/mL (≈ 14.1 µM) | 7.3 µg/mL (≈ 22 µM)

— ChEMBL document CHEMBL1155756, “Pacovatinins A-C, new labdane diterpenoids from the seeds of Renealmia exaltata” (J Nat Prod, 2001)
